Data taken from publication PMC6268222, “Inhibitory Effects of Resveratrol Analogs on Mushroom Tyrosinase Activity” (Molecules, 2012).
≈ marks a conversion by molar mass, not a printed value.

What was measured:
mushroom tyrosinase = mushroom tyrosinase (Agaricus bisporus, UniProt C7FF04); test: Tyrosinase inhibition qualitative enzymatic reaction screening; type: biochemical; settings: second hour of assay; p > 0.05
Description: The ability to inhibit the activity of tyrosinase enzyme was evaluated using the enzymatic method described by Macrini et al., with modifications. This method relies on the inhibition of tyrosinase in the presence of its substrate tyrosine, interrupting the synthesis of melanin.
Aliquots (10 µL) of a solution composed of 125 U/mL of mushroom tyrosinase (Sigma-Aldrich, St. Louis, MO, USA) were added to 96-well microplates, and then pH 6.8 phosphate buffer solution (70 µL) and the analogs (60 µL, 350 µg/mL, in 2.5% DMSO) were also added. […] To the resultant mixture, L-tyrosine (70 µL, Sigma-Aldrich) at a concentration of 0.3 mg/mL in distilled water was added (final volume in the wells = 210 µL). The absorbances of the microplate wells were read on a spectrophotometric microplate reader (SpectraCount, Packard, Meriden, CT, USA) at 510 nm (T0). Then, the microplates were incubated at 30 ± 1 °C for 60 minutes and the absorbances were registered again (T1). An additional incubation for 60 minutes at 30 ± 1 °C was done and after this period a new spectrophotometric reading was conducted (T2). The inhibitory percentage at the two times (T1 and T2) was obtained according to the formula to inhibitory activity percentage as follows: [drawing 9] (1) Where IC% = inhibitory activity; C = negative control absorbance; S = sample or positive control absorbance (absorbance at time T1 or T2 minus the absorbance at time T0).

[1] = test system: B16-F10 murine melanoma cells; parameters: method as in PMID 22189272; settings: cited from earlier work
tyrosinase = target: tyrosinase; parameters: method as in earlier work; settings: ref 13 (Bernard and Berthon); cited from earlier work

Chain of mushroom tyrosinase (C7FF04 1-392): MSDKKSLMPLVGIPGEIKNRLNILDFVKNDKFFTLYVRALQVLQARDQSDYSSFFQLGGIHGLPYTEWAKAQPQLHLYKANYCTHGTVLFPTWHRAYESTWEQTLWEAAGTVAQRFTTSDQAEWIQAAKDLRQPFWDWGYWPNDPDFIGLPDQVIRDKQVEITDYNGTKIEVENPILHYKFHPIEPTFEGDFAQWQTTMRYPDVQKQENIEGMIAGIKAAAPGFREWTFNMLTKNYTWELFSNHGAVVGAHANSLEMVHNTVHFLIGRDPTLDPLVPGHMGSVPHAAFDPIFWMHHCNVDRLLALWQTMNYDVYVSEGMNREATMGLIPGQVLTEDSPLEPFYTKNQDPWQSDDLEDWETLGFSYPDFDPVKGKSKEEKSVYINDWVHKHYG

melting point [°C]	Structure (SMILES)	inhibitory ability compared with kojic acid (mushroom tyrosinase)	further results
	Oc1ccccc1/C=N/c1ccccc1 [Analog E]	statistically equal to that of kojic acid	
89.6 to 90.7	O=[N+]([O-])c1ccc(/C=N/c2ccccc2)cc1 [Analog C]		
53.1 to 54.2	COc1cc(/C=N/c2ccccc2)ccc1O [Analog F]	statistically equal to that of kojic acid	
	Oc1ccc(/C=N/c2ccccc2)cc1 [Analog D]	statistically equal to that of kojic acid	
	Oc1ccc(/C=C/c2cc(O)cc(O)c2)cc1 [resveratrol, Resveratrol]		cellular melanin production [1]: significantly suppressed; cytotoxicity (concentration without any cytotoxicity) [1]: > 200 µM; IC50 (tyrosinase inhibition) (tyrosinase): 57.05 µg/mL (≈ 250 µM)
